Results taken from US20260272916A1, “RADIATION SENSITIVITY ENHANCING COMPOSITION CONTAINING ARIPIPRAZOLE AS ACTIVE INGREDIENT” (KOREA INSTITUTE OF RADIOLOGICAL & MEDICAL SCIENCES, priority 2018, published 2026).

Assays:
[1] = tested on: MCF-7 cells; assay: Drug library screen for radiation sensitizers, EZ-Cytox cell viability; type: cell-based, human; set-up: dose or concentration left out as unconfirmed; conditions: 96 hours, FIG. 1
Procedure: MCF-7 cells, a human breast cancer cell line, were adjusted to a concentration of 5000 cells/well, then inoculated into a 96 well plate and pre-cultured for 24 hours. Subsequently, the medium was removed, and each drug in Enzo's drug library at a concentration of […] was treated alone or in combination with radiation. After 96 hours, the survival rate of cells was measured by Dogen's EZ-Cytox Cell Viability Assay kit.

[2] = tested on: MCF-7 cells; assay: Cell viability at various aripiprazole concentrations alone or with radiation (EZ-Cytox); type: cell-based, human; conditions: 96 hours, FIG. 2
Procedure: In order to confirm the effect of aripiprazole on radiation sensitivity in cancer cells, a cell viability measurement experiment was performed in breast cancer cells having radiation resistance using the […] as follows. After the MCF-7 cells were adjusted to a concentration of 5000 cells/well, they were inoculated into a 96-well plate and pre-cultured for 24 hours. Thereafter, the medium was removed and aripiprazole ([…]) was treated alone or in combination with radiation. After 96 hours, the survival rate of cells was measured by Dogen's EZ-Cytox Cell Viability Assay kit.

[3] = tested on: MCF-7 cells; conditions: 24 hours, FIG. 3
Procedure: The MCF-7 cells were treated with aripiprazole (1, 5, 10, 20 μM) alone or in combination with radiation. After 24 hours, after washing with PBS, proteins were extracted from the cells, and the degree of PARP cleavage was confirmed by Western blot.
(§1) After 24 hours, after washing with PBS, proteins were extracted from the cells, and the degree of PARP cleavage was confirmed by Western blot.
as §1

[4] = tested on: MCF-7 cells; conditions: MCF-7, combination with radiation vs single treatments, 24 hours, FIG. 4
Procedure: (§2) After the MCF-7 cells or U251 cells were adjusted to a concentration of 5000 cells/well, they were inoculated into a 96 well plate and pre-cultured for 24 hours. Thereafter, the medium was removed and aripiprazole was treated alone or in combination with radiation. After 24 hours, the degree of DNA fragmentation was confirmed using Roche's Cell Death Detection ELISA plus kit.
(§3) After 24 hours, the degree of DNA fragmentation was confirmed using Roche's Cell Death Detection ELISA plus kit.
as §3

[5] = tested on: U251 cells; assay: DNA fragmentation, Cell Death Detection ELISA plus kit; type: cell-based; conditions: U251, combination with radiation vs single treatments, 24 hours, FIG. 4
Procedure: as §2

O=C1CCc2ccc(OCCCCN3CCN(c4cccc(Cl)c4Cl)CC3)cc2N1 [aripiprazole, 7-{4-[4-(2,3-dichlorophenyl)-1-piperazinyl]-butoxy}-3,4-dihydro-2(1H)-quinolinone] was tested, and the “survival rate of cells” value ([1]; MCF-7, drug treatment alone) was “no effect on the survival rate of cells”, the “survival rate of cells” value ([1]; MCF-7, in combination with radiation) was “lowers the survival rate of radiation-resistant cells” and the radiation sensitizing effect ([2]; MCF-7, aripiprazole 5, 10, 20 μM with radiation) was “excellent radiation sensitizing effect in a concentration-dependent manner”. The “survival rate reduction effect” value ([2]; MCF-7, aripiprazole 5, 10, 20 µM, combination with radiation vs alone) was “more excellent when treated in combination with radiation than the treatment with aripiprazole alone”, the “induction of apoptosis in radiation-treated cancer cells” value ([3]; MCF-7, aripiprazole 1, 5, 10, 20 μM with radiation) was “induce apoptosis in radiation-treated cancer cells in a concentration-dependent manner” and the “PARP cleavage induction effect” value ([3]; MCF-7, aripiprazole 1, 5, 10, 20 μM, combination with radiation vs alone) was “more excellent when treated in combination with radiation than treated aripiprazole alone”. The “DNA fragmentation inducing effect” value [4] was “superior to the effect of adding up each treatment” and the “DNA fragmentation inducing effect” value [5] was “superior to the effect of adding up each treatment”.
